# ChEMBL document CHEMBL1142844, “A chemical strategy to promote helical peptide-protein interactions involved in apoptosis” (Bioorg Med Chem Lett, 2005)
# Molecular target: Apoptosis regulator Bcl-2 (Homo sapiens, UniProt P10415)
# Experiment: Inhibition of BCL2 by fluorescence polarization based competitive binding assay
# Conditions: not given; call rule not given here
# Chain of Apoptosis regulator Bcl-2 (P10415 whole entry): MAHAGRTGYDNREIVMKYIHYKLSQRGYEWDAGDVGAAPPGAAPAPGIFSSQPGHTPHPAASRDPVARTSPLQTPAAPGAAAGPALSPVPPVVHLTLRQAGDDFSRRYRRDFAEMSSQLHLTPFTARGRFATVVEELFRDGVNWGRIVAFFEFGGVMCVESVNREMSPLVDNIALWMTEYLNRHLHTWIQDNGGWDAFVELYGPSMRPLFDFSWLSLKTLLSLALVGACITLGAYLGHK
row,IC50,Compound
1,Not Active,H-QRYGRELRRMSDEFEG-OH

# Same assay, conditions: read-out: IC50
row,IC50,Compound
1,14.1 µM,CC[C@H](C)[C@H](NC(=O)[C@H](CC(N)=O)NC(=O)[C@H](CCCN=C(N)N)NC(=O)[C@@H](NC(=O)[C@@H](NC(=O)[C@H](CC(=O)O)NC(=O)[C@H](CCC(=O)O)NC(=O)[C@@H](N)CCC(N)=O)[C@@H](C)CC)[C@@H](C)CC)C(=O)N[C@@H](C)C(=O)N[C@@H](CCCN=C(N)N)C(=O)N[C@@H](Cc1c[nH]cn1)C(=O)N[C@@H](CC(C)C)C(=O)N[C@@H](C)C(=O)N[C@@H](CCC(N)=O)C(=O)N[C@H](C(=O)NCC(=O)N[C@@H](CC(=O)O)C(=O)N[C@@H](CO)C(=O)N[C@@H](CCSC)C(=O)N[C@@H](CC(=O)O)C(=O)N[C@@H](CCCN=C(N)N)C(=O)N[C@@H](CO)C(=O)N[C@H](C(=O)N1CCC[C@H]1C(=O)N1CCC[C@H]1C(=O)NCC(=O)O)[C@@H](C)CC)C(C)C
2,29.1 µM,H-KKLSECLKRIGDELDS-OH
3,0.41 µM,H-NLAAAQRYGRELRRMSDEFEGSFKGL-OH
4,0.65 µM,H-NLWAAGQVGRQLAIIGDDINRSFKGL-OH
5,1.33 µM,H-NLWAAKKLSECLKRIGDELDSSFKGL-OH
6,5.6 µM,H-NLWAAQRYGRELRRMSDEFEG-OH
7,0.8 µM,H-NLWAAQRYGRELRRMSDEFEGAFKGL-OH
8,1.36 µM,H-NLWAAQRYGRELRRMSDEFEGSAKGL-OH
9,0.3 µM,H-NLWAAQRYGRELRRMSDEFEGSFKGL-OH
10,1.56 µM,H-NLWAARNIARHLAQVGDSMDRSFKGL-OH
11,0.49 µM,H-NRWAAQRYGRELRRMSDEFEGSFKGL-OH
12,3.03 µM,H-PSSTMGQVGRQLAIIGDDINRRYDSE-OH
13,2.88 µM,H-QDASTKKLSECLKRIGDELDSNMELQ-OH
14,17.5 µM,H-QRYGRELRRMSDEFEGSFKGL-OH
15,22.3 µM,H-RNIARHLAQVGDSMDR-OH
